Columns and labels:
[1] = background statement; cited from earlier work
[2] = test system: airway resistance in experimental asthma model; assay: Effect on experimental asthma model in guinea pigs; assay type: in vivo, guinea pigs (Male hadley); conditions: Cavia porcellus, Table 7; for inhibition in vivo at 100 mg/kg: 100 mg/kg oral, OVA challenge, guinea pigs
Procedure, shortened: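 Male Hartley guinea pigs sensitized i.p. with 5 mg ovalbumin three times weekly, challenged 2 weeks later by 1 min inhalation of 1% OVA. Compounds dosed orally at 100 mg/kg in 0.5% CMCNa; airway resistance recorded 30 min, inhibition % from maximum resistance versus vehicle (n=5).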

[3] = test system: contact dermatitis induced by picryl chloride; assay: Effect on contact dermatitis induced by picryl chloride in mice (delayed type hypersensitization); assay type: in vivo; conditions: Mus musculus; 100 mg/kg oral, ear thickness 24 hours after challenge; Table 6; read-out: Inhibition (%) against the increase of ear thickness
Procedure, shortened: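 Mice sensitized on abdomen with 7 mg picryl chloride, ear-challenged 7 days later with 1% picryl chloride; compounds dosed orally at 100 mg/kg in 0.5% CMCNa 1 h before and 16 h after challenge.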

[4] = test system: homologous passive cutaneous anaphylaxis (PCA) reaction; assay: Effect on homologous passive cutaneous anaphylaxis (PCA) reaction in rats; assay type: in vivo, rats (Male wistar rats); conditions: Rattus norvegicus, 0.5 h; 100 mg/kg oral, 1 hour before antigen, rats; Table 3
Procedure, shortened: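 Male Wistar rats (9 weeks) sensitized intradermally with anti-TNP-ascaris serum; 48 h later compounds dosed orally at 100 mg/kg in 0.5% CMCNa, n=5 per group. Challenge 1 h post-dose with i.v. TNP-As plus Evans Blue; blue-spot diameter measured at 30 min, inhibition calculated versus vehicle group.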

Compound	gastrointestinal absorbability [1]	inhibition in vivo at 20 mg/kg ([2]; iv, positive control DSCG 20 mg/kg injected into the vein)	inhibition in vivo at 100 mg/kg [3]	inhibition in vivo at 100 mg/kg [4]	inhibition in vivo at 100 mg/kg [2]
O=C(O)c1cc(=O)c2c(OCC(O)COc3cccc4oc(C(=O)O)cc(=O)c34)cccc2o1 [DSCG, reference compound]	extremely poor	50.5%			
CCCCCCCCCCCCOc1ccc2c(O[C@@H]3O[C@H](CO)[C@H](O)[C@H](O)[C@H]3O)c(OC(C)=O)c(=O)oc2c1 [compound 103]			48.3%	51.1%	65.3%
CCCCCCCCCCCCOc1ccc2c(O)c(O[C@@H]3O[C@H](CO)[C@H](O)[C@H](O)[C@H]3O)c(=O)oc2c1 [compound 35]			61.1%	60.1%	75.2%
CC(C)Oc1ccc2c(O)c(O[C@@H]3O[C@H](CO)[C@H](O)[C@H](O)[C@H]3O)c(=O)oc2c1 [compound 36]			58.2%	56.7%	66.4%
CCCCCCCCCCCCOc1ccc2c(O)c(O[C@@H]3O[C@H](CO)[C@@H](O)[C@H](O)[C@H]3O)c(=O)oc2c1 [compound 17]			59.2%	59.2%	75%
CCCCOc1ccc2c(O[C@@H]3O[C@H](CO)[C@H](O)[C@H](O)[C@H]3O)c(OC(C)=O)c(=O)oc2c1 [compound 102]			46.3%	46.3%	50.3%
CCC=CCCOc1ccc2c(O[C@@H]3O[C@H](CO)[C@H](O)[C@H](O)[C@H]3O)c(O)c(=O)oc2c1 [compound 98]			61.2%	60.2%	72.8%
CCCCOc1ccc2c(O)c(O[C@H]3O[C@H](CO)[C@@H](O)[C@H](O)[C@@H]3O)c(=O)oc2c1 [compound 24]			52.6%	54.3%	58.3%
O=c1oc2cc(O)ccc2c(O[C@@H]2O[C@H](CO)[C@H](O)[C@H](O)[C@H]2O)c1O [compound 91]			45.5%	40.4%	45.1%
CCCCCCCCOc1ccc2c(O)c(O[C@@H]3O[C@H](CO)[C@@H](O)[C@H](O)[C@H]3O)c(=O)oc2c1 [compound 16]			64%	62.6%	75.8%
O=c1oc2cc(O)ccc2c(O)c1O[C@@H]1O[C@H](CO)[C@H](O)[C@H](O)[C@H]1O [compound 32]			48.1%	43.2%	54.8%
CCCCCCCCOc1ccc2c(O)c(O[C@@H]3O[C@H](CO)[C@H](O)[C@H](O)[C@H]3O)c(=O)oc2c1 [compound 34]			64.2%	64.3%	78.3%
CCCCCCCCCCCCOc1ccc2c(O[C@@H]3O[C@H](CO)[C@@H](O)[C@H](O)[C@H]3O)c(O)c(=O)oc2c1 [compound 68]			56.6%	59.9%	65.3%
CCCCCCOc1ccc2c(O)c(O[C@@H]3O[C@H](CO)[C@@H](O)[C@H](O)[C@H]3O)c(=O)oc2c1 [compound 43]			63.4%	63.2%	76.3%
CCCCCCCCOc1ccc2c(O[C@@H]3O[C@H](CO)[C@@H](O)[C@H](O)[C@H]3O)c(O)c(=O)oc2c1 [compound 66]			62.5%	63.8%	74.1%
CCCCCCOc1ccc2c(O[C@H]3O[C@H](CO)[C@@H](O)[C@H](O)[C@@H]3O)c(O)c(=O)oc2c1 [compound 122]			53.2%	52.3%	62.1%
CCCCCCCCOc1ccc2c(O[C@@H]3O[C@H](CO)[C@H](O)[C@H](O)[C@H]3O)c(O)c(=O)oc2c1 [compound 94]			64.7%	63.3%	82.6%
COc1ccc2c(OCc3ccccc3)c(O[C@@H]3O[C@H](COC(C)=O)[C@H](OC(C)=O)[C@H](OC(C)=O)[C@H]3OC(C)=O)c(=O)oc2c1 [compound 7, 7-methoxy-4-benzyloxy-3-(tetra-O-acetyl-β-D-galactopyranosyloxy)-2H-1-benzopyran-2-one]			40.3%	41.1%	43.7%
CCCCOc1ccc2c(O[C@H]3O[C@H](CO)[C@@H](O)[C@H](O)[C@@H]3O)c(OC(C)=O)c(=O)oc2c1 [compound 88]			40.2%	45.8%	43.5%
